Marks after values point to notes of the source that are not given here.
Key:
M. costata lyase = experiment: Reversible and irreversible inhibitors of the fungal lyase (M. costata); assay type: biochemical, Morchella costata; settings: for decrease of lyase activity (inhibition): 0.1 M inhibitor
Protocol: (§1) The reaction was carried out at 30 ° C. for 30 min and stopped by the addition of 3,5-dinitrosalicylic acid reagent. Optical density at 550 nm was measured after standing at room temperature for 10 min.
Under the same assay conditions and in the presence of 2 mM PCMB, the activity decreased by 60% for the M. costata lyase and 98% for the lyase from the fungal infected red algae. This means that the fungal lyase was much less sensitive to heavy metal inhibition.

[1] = system: lyase from the fungal infected red algae; experiment: Inhibition, activation and stabilisation of the lyase from fungal infected algae; assay type: biochemical, fungal infected Gracilariopsis lemaneiformis
Protocol: […] The reaction was carried out at 30° C. for 30 min and stopped by the addition of 3,5-dinitrosalicylic acid reagent. Optical density at 550 nm was measured after standing at room temperature for 10 min.

M. vulgaris lyase = experiment: Reversible inhibitors of the M. vulgaris lyase; assay type: biochemical, Morchella vulgaris; settings: 0.1 M inhibitor
Protocol: as §1

lyase from M. costata = experiment: Relative degrading rates of the lyase from M. costata towards various substrates; assay type: biochemical, Morchella costata
lyase from M. vulgaris = experiment: Relative degrading rates of the lyase from M. vulgaris towards various substrates; assay type: biochemical, Morchella vulgaris; settings: for Activity (%) (maltotetraose = 100%): all substrates 10 mg ml^−1
Protocol: The activity observed for maltotetraose is treated as 100%. The final concentration of all substrates was 10 mg ml^−1.

[2] = system: α-1,4-glucan lyase from the parasite-free red seaweed Gracilariopsis lemaneiformis; experiment: Degradation rates of the Californian algal lyase on various substrates; assay type: biochemical; settings: for AF released: substrate 10 mg/ml, pH 3.8, 40 min at 45° C.
Protocol: Reaction conditions: The reaction mixture contained 10 mM of HOAc-NaOAc (pH 3.8). The substrate concentration was 10 mg/ml. The final volume was 100 ul after the addition of lyase and water. The reaction time was 40 min at 45° C.

[3] = Electrochemical oxygen consumption in methyl linoleate emulsion; settings: AF 15, 146 and 680 μM; MMb initiated; pH 5.8; 25.0 °C
Protocol: The activity of AF was investigated in a methyl linoleate emulsion as described by Jorgensen and Skibsted (Z. Lebensm. Unters. Forsch. (1993) 196: 423-429) with minor modifications: To 5.00 ml of a 1.33 mM methyl linoleate emulsion in 5.0 mM aqueous phosphate buffer with pH=5.8 and 0.2 w/w % Tween 20 as emulsifier was added AF in the following concentrations: 0, 15, 146 and 680μM. The oxidation in the system was initiated by addition of 50 μl 0.26 M metmyoglobin (MMb) final concentration 0.26 mM. Immediately after initiating the reaction the sample was injected to a thermostated (25.0±0.1° C.) 70 μl closed cell, effectively excluding diffusion of oxygen into the system. The oxygen consumption was measured by a Clark electrode, which was connected to a PC data collection program. The relative oxygen concentration (%) was registered every 30s.

[4] = ESR analysis of hydroxyl radical scavenging (Fenton reaction, DMPO spin trap); settings: H2O2 0.17 mM, Fe2+ 4.8 μM
Protocol: Hydroxyl radicals were generated by a Fenton reaction with H2O2 (0.17 mM) and FeSO4 (4.8 μM). The generated radicals were trapped by 5,5-dimethyl-1-pyrroline N-oxide (DMPO, 9.7 mM). AF was added in concentrations of 1.3 mM and 6.3 mM. A water soluble extract of rosemary (Rosmarinus officinalis L.) was analyzed in a concentration of 0.25 mg/ml (in grams equivalent to 1.26 mM AF). Measurements were carried out at room temperature (20±1° C.) after 120 s and repeated for the same reaction mixture after 300 s with the following spectrometer settings: Center field 3475.60 G; sweep width 55 G; microwave power 20 mW; modulation frequency 100 kHz; modulation amplitude 1.01 G; receiver gain 1.00·10^5; conversion time 81.92 ms time constant 163.84 ms and sweep time 83.89 s.
The generated hydroxyl radicals were trapped by DMPO. The spin adduct gives rise to a characteristic 1:2:2:1 ESR spectrum. The peak height of the spectrum is proportional to the quantitative amount of generated spin adduct. Addition of both DMPO and AF will set up a competition between the spin trap and AF. A reduction of peak height will indicate a good scavenging activity of AF.

[5] = Induction period of 50% mayonnaise in bomb calorimeter, 80° C., pure O2; settings: +500 ppm
Protocol: In the test procedure the anti-oxidants were added to the mayonnaise to provide an anti-oxidant concentration in the order of about 500 ppm. The mayonnaise was then placed in a bomb calorimeter at temperature 80° C. containing pure O2. An induction period to the onset of substantial oxidation of the product is then measured.

[6] = Induction period of yogurt salad dressing with 50% oil; settings: 500 ppm; PF = IP with antioxidant / IP without
Description: For each temperature defined as PF=IP of the oil with added antioxidant/IP of the same oil without added antioxidant

[7] = Reduction of 3,5-dinitrosalicylic acid by AF; assay type: physicochemical
[8] = system: α-1,4-glucan lyase isolated from M. costata; experiment: Oligosaccharide specificity and AF formation by M. costata lyase, Dionex HPLC; assay type: biochemical, Morchella costata; settings: 30° C.
Protocol: The specificity of α-1,4-glucan lyase isolated from M. costata for different oligosaccharides was tested. […] The oligosaccharides were dissolved in H2O at a concentration of 8 mg/ml. The enzyme assay contained 150 μl substrate G2/G3/G4/G5/G6/G7, 120 μl 0.1M MBS pH 6.3 and 30 μl purified enzyme. The reaction mixture was incubated for 60 min at 30° C. Afterwards the reaction was stopped by boiling for 3 min and 900 μl absolute ethanol was added for precipitation. After centrifugation at 20.000×g for 5 min at 4° C. the supernatant was transferred to a new eppendorf tube and lyophilized.
The freeze-dried samples were dissolved in 1000 μl H2O and were filtrated through a 0.22 μm Millipore filter before 25 μl of the sample was loaded on the Dionex HPLC.
Analyses were performed on a Dionex 4500i chromatography system consisting of a GPM-2 pump and a PED detector which was used in pulse-amperometric detection mode.
α-1,4-glucan lyase from M.costata hydrolyses starch to the end-product 1,5-anhydrofructose. The end-product was shown by HPLC, method 2. The enzyme assay contained 500 μl amylopectin (20 mg/ml, dissolved in H2O), 400 μl 0.1M MES pH 6.3 and 100 μl purified enzyme. The reaction mixture was incubated at 30° C. and the reaction was stopped by boiling after 30 or 120 min incubation. […]

α-1,4-glucan lyase = experiment: Activity of the lyase towards maltosaccharides (summary); assay type: biochemical
[9] = system: lyase from the fungal infected Gracilariopsis lemaneiformis; experiment: Reaction rates with glycogen and amylopectin, lyase from fungal infected Gracilariopsis lemaneiformis; assay type: biochemical
[10] = system: lyase from the fungal infected algae; experiment: Effect of reaction media on production of AF by the lyase; assay type: biochemical, fungal infected Gracilariopsis lemaneiformis; settings: NaCl 0.85% (0.145 M) in the reaction mixture
Description: The production of AF using either pure water or 0.85% NaCl as reaction medium decreased the yield.

[11] = system: α-1,4-glucan lyase from the parasite-free red seaweed Gracilariopsis lemaneiformis; experiment: PCMB inhibition of the lyase from Californian alga; assay type: biochemical; settings: final concentration 2 mM
Protocol: 7. At a final concentration of 2 mM, p-chloromercuribenzoic acid (PCMB) inhibited the lyase activity by 96%, indicating the —SH group(s) is essential for the enzymatic activity.

OC[C@H]1NC[C@H](O)[C@@H](O)[C@@H]1O [deoxyjirimycin]
activity decreased to (remaining activity) (M. costata lyase; 25 μM, amylopectin 2%): 10.4% | lyase activity (M. costata lyase; 100 μM, amylopectin 2%): completely lost | activity decreased to (remaining activity) ([1]; 25 μM, amylopectin 2%): 10.4% | lyase activity ([1]; 100 μM, amylopectin 2%): completely lost

O=C[C@H](O)[C@@H](O)[C@H](O)[C@H](O)CO [Glucose, glucose]
decrease of lyase activity (inhibition) (M. costata lyase; Amylopectin 2%): 7% | decrease of lyase activity (inhibition) (M. costata lyase; Glycogen 1% (10 mg/ml)): 0.000% | decrease of lyase activity (inhibition) (M. costata lyase; Glycogen 1% (10 mg/ml), listed as glucose): not affected | inhibition of lyase reaction (M. vulgaris lyase; Amylopectin (1%)): 28% | inhibition of lyase reaction (M. vulgaris lyase; Glycogen (1%)): 5% | degradation (AF detectable on TLC plates) (lyase from M. costata; incubated for 48 h): no AF detectable | degradation (AF detectable on TLC plates) (lyase from M. vulgaris; incubated for 48 h): no AF detectable | degradation by the lyase [2]: not able to degrade

O=C1CO[C@H](CO)[C@@H](O)[C@@H]1O [AF, 1,5-D-anhydrofructose]
oxygen consumption (relative oxygen concentration) [3]: a lag-phase is observed | Peak height [120 s] ([4]; Anhydro fructose 1.3 mM): 2634 | Peak height [300 s] ([4]; Anhydro fructose 1.3 mM): 2545 | Peak height [120 s] ([4]; Anhydro fructose 6.3 mM): 1781 | Peak height [300 s] ([4]; Anhydro fructose 6.3 mM): 1900 | IP (hours), Induction Period [5]: 32.0 h | PF [6]: 1.06 | reduction of 3,5-dinitrosalicylic acid to 3-amino-5-nitrosalicylic acid [7]: can easily reduce | inhibition of enzyme activity by the endproduct ([8]; amylopectin, 30 and 120 min incubation): not inhibited

OC[C@H]1O[C@H](O[C@H]2[C@H](O)[C@@H](O)[C@@H](O[C@H]3[C@H](O)[C@@H](O)[C@@H](O[C@H]4[C@H](O)[C@@H](O)[C@@H](O[C@H]5[C@H](O)[C@@H](O)C(O)O[C@@H]5CO)O[C@@H]4CO)O[C@@H]3CO)O[C@@H]2CO)[C@H](O)[C@@H](O)[C@@H]1O (stereo partly shown) [Maltopentaose, maltopentaose]
relative degrading rate (maltotetraose = 100%) (lyase from M. costata; substrate 2 mg/ml): 107.1% | relative degrading rate (maltotetraose = 100%) (lyase from M. costata; substrate 4 mg/ml): 100.1% | relative degrading rate (maltotetraose = 100%) (lyase from M. costata; substrate 10 mg/ml): 99.7% | Activity (%) (maltotetraose = 100%) (lyase from M. vulgaris): 79.3% | AF released [2]: 674 nmol | lyase activity towards maltosaccharide (α-1,4-glucan lyase): highest activity

OC[C@H]1O[C@H](O[C@H]2[C@H](O)[C@@H](O)C(O)O[C@@H]2CO)[C@H](O)[C@@H](O)[C@@H]1O (mixture of isomers) [Maltose, maltose]
decrease of lyase activity (inhibition) (M. costata lyase; Amylopectin 2%): (67.2%) | decrease of lyase activity (inhibition) (M. costata lyase; Glycogen 2%): (49.7%) | inhibition of lyase reaction (M. vulgaris lyase; Amylopectin (1%)): 80% | inhibition of lyase reaction (M. vulgaris lyase; Glycogen (1%)): 57% | activity (maltotetraose as 100%) (lyase from M. costata; purified fungal lyase, section B.1.4.3): 2% | 1,5-anhydrofructose formed ([8]; 8 mg/ml substrate, pH 6.3, 60 min): almost no 1,5-anhydrofructose was formed | Activity (%) (maltotetraose = 100%) (lyase from M. vulgaris): 10.1% | AF released [2]: 657 nmol | lyase activity towards maltosaccharide (α-1,4-glucan lyase): low activity

Amylopectin
stabilizing effect on the lyase ([1]; soluble and immobilized enzyme system): stabilizing effect | degradation by the fungal lyase (lyase from M. costata): also degraded | relative degrading rate (maltotetraose = 100%) (lyase from M. costata; substrate 10 mg/ml): 106.5% | Activity (%) (maltotetraose = 100%) (lyase from M. vulgaris): 139.9% | substrate concentration at which half of the maximal velocity rate was reached [2]: 3.76 mg/mL | AF released [2]: 732 nmol | relative reaction rates ([9]; 25 C.): 0.818^a | relative reaction rates ([9]; 30 C.): 1.133^a | relative reaction rates ([9]; 45 C.): 1.17^a

[Cl-].[Na+] [NaCl]
increase of AF yield [10]: up to 1 -fold

O=C(O)c1cc[c]([Hg][Cl])cc1 [PCMB, p-chloromercuribenzoic acid]
activity decreased by (M. costata lyase; 2 mM PCMB): 60% | activity decreased by ([1]; 2 mM PCMB): 98% | inhibition of lyase activity [11]: 96%
